Assay results reported in patent US8624034B2, “Fluoro-pyridinone derivatives useful as antibacterial agents” (Pfizer Inc., priority 2011, dated 2014).
pIC50: −log10 of the molar value. Converted amounts (≈) assume the structure as drawn.

What was measured:
[1] = biological target: T1, Pseudomonas aeruginosa LpxC enzyme (Pseudomonas aeruginosa, UniProt P47205); test: IC50 assay, LpxC enzyme from P. aeruginosa (PA LpxC enzyme IC50); assay type: biochemical; details: Table 2; LpxC enzyme 0.1 nM, 25° C., 1 hour; read-out: PA:IC50
T1 construct: made in house; host or cells: E. coli
T1 sequence (P47205 1-303): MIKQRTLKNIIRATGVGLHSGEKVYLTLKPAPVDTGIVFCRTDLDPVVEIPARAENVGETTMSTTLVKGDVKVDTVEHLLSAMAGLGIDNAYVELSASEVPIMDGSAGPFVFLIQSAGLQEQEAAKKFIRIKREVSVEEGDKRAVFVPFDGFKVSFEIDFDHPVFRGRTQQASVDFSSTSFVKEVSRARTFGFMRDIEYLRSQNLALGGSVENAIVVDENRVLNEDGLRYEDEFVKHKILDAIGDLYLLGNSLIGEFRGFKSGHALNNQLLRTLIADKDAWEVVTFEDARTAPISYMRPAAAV
Summary of the method: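 IC50 values came from percent conversion, referenced to a no-enzyme control. Conversion was read by RapidFire HTMS mass spectrometry after HCl quench of the 1 h enzyme reaction.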

[2] = tested on: Acinetobacter baumannii/haemolyticus, multidrug-resistant clinical isolate (AB-3167); test: MIC determination, AB-3167; assay type: cell-based; details: Table 2, lower of duplicate values
Summary of the method: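 MIC read visually after overnight growth across 2-fold concentration steps in the CLSI dilution method against the multidrug-resistant clinical isolate. Duplicate determinations, lower value reported when within 2-fold, otherwise repeated; every run checked with control organisms and reference drugs.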

[3] = tested on: Escherichia coli EC-1: VOGEL, mouse virulent; test: MIC determination, EC-1; assay type: cell-based; details: Escherichia coli, read-out: EC-1 (MIC), Table 2, lower of duplicate values
Summary of the method: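 Duplicate runs differing by more than 2-fold were repeated, and otherwise the lower MIC was kept. The test organism was E. coli EC-1 (VOGEL, mouse virulent), incubated overnight across 2-fold compound dilutions following CLSI guidelines. The MIC was read visually as the lowest concentration inhibiting growth relative to drug-free control.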

[4] = tested on: Pseudomonas aeruginosa UI-18: wild-type (PA-7); test: MIC determination, PA-7; assay type: cell-based; details: Table 2, lower of duplicate values
Protocol: The in vitro antibacterial activity of compounds described in the Examples was evaluated by minimum inhibitory concentration (MIC) testing according to Clinical and Laboratory Standards Institute (CLSI). See: Clinical and Laboratory Standards Institute. Methods for Dilution Antimicrobial Susceptibility Tests for Bacteria that Grow Aerobically; Approved Standard-Eighth Edition. CLSI document M7-A8 [ISBN 1-56238-689-1]. Clinical and Laboratory Standards Institute, 940 West Valley Road, Suite 1400, Wayne, Pa. 19087-1898 USA, 2006; also Clinical and Laboratory Standards Institute. Performance Standards for Antimicrobial Susceptibility Testing; Twentieth Informational Supplement. CLSI document M100-S20 [ISBN 1-56238-716-2]. Clinical and Laboratory Standards Institute.
The MIC determination is a standard laboratory method for evaluating the antibacterial activity of a compound. The MIC represents the lowest drug concentration that inhibits visible growth of bacteria following overnight incubation. […] Typically, the drug concentration range is broken down into 2-fold increments (e.g. 0.06 μg/mL, 0.12 μg/mL. 0.25 μg/mL, 0.50 μg/mL, 1.0 μg/mL, etc.) and the various drug concentrations are all individually incubated overnight with approximately the same number of bacteria. The MIC is then determined by visually inspecting the drug effect at each concentration, and identifying the lowest drug concentration that has inhibited bacterial growth as compared to the drug free control. Typically, bacteria continue to grow at drug concentrations lower than the MIC and don't grow at concentrations at and above the MIC.
The MIC values described in Table 2 and 3 below were derived from assays wherein each test compound was evaluated in duplicate. In cases where the duplicate values varied by 0-2-fold, the lower of the two values was reported below. Generally speaking, if the duplicate values varied by more than 2-fold, the assay was considered non-valid and was repeated until the variation between duplicate runs was ≦2-fold. In line with the CLSI guidelines referred to above, both control organisms and reference compounds were utilized in each MIC assay to provide proper quality control. MIC values generated with these control organisms and reference compounds were required to fall within a defined range for the assay to be considered valid and be included herein. Those skilled in the art will recognize that MIC values can and do vary from experiment to experiment. Generally speaking, it should be recognized that MIC values often vary +/−2-fold from experiment to experiment. While a single MIC is reported for each compound and each microorganism, the reader should not conclude that each compound was only tested once. Several of the compounds were subjected to multiple tests. The data reported in Tables 2 and 3 is reflective of the compounds relative activity and different MICs may have been generated on these occasions in line with the guidelines described above.
The following bacterial strains were used in these MIC determinations:
1) Pseudomonas aeruginosa UI-18: Wild-type, labeled as PA-7 in Tables 2 and 3;

| SMILES | pIC50 [1] | MIC [2] | MIC [3] | MIC [4] |
| --- | --- | --- | --- | --- |
| C[C@@](CCn1cc(F)c(-c2ccc(-n3nccn3)c(F)c2)cc1=O)(C(=O)NO)S(C)(=O)=O [Example 36, (2R)-4-{5-Fluoro-4-[3-fluoro-4-(2H-1,2,3-triazol-2-yl)phenyl]-2-oxopyridin-1(2H)-yl}-N-hydroxy-2-methyl-2-(methylsulfonyl)butanamide] | 9.40 | > 64 µg/mL | 0.5 µg/mL (≈ 1.07 µM) | 1 µg/mL (≈ 2.14 µM) |
| C[C@@](CCn1cc(F)c(-c2ccc(-c3ncccn3)cc2)cc1=O)(C(=O)NO)S(C)(=O)=O [Example 20, (2R)-4-[5-Fluoro-2-oxo-4-(4-pyrimidin-2-ylphenyl)pyridin-1(2H)-yl]-N-hydroxy-2-methyl-2-(methylsulfonyl)butanamide] | 9.02 | > 64 µg/mL | 0.125 µg/mL (≈ 0.271 µM) | 1 µg/mL (≈ 2.17 µM) |
| COc1ccc(-c2ccc(-c3cc(=O)n(CC[C@](C)(C(=O)NO)S(C)(=O)=O)cc3F)cc2)cn1 [Example 32, (2R)-4-{5-Fluoro-4-[4-(6-methoxypyridin-3-yl)phenyl]-2-oxopyridin-1(2H)-yl}-N-hydroxy-2-methyl-2-(methylsulfonyl)butanamide] | 9.40 | > 64 µg/mL | ≤ 0.06 µg/mL | 1 µg/mL (≈ 2.04 µM) |
| C[C@@](CCn1cc(F)c(-c2ccccc2)c(F)c1=O)(C(=O)NO)S(C)(=O)=O [Example 38, (2R)-4-(3,5-Difluoro-2-oxo-4-phenylpyridin-1(2H)-yl)-N-hydroxy-2-methyl-2-(methylsulfonyl)butanamide] | 9.26 | > 64 µg/mL | 1 µg/mL (≈ 2.5 µM) | 0.5 µg/mL (≈ 1.25 µM) |
| [2H]C([2H])([2H])c1ccc(-c2cc(=O)n(CC[C@](C)(C(=O)NO)S(C)(=O)=O)cc2F)cc1 [Example 43, (2R)-4-[5-Fluoro-4-(4-trideuteromethylphenyl)-2-oxopyridin-1(2H)-yl]-N-hydroxy-2-methyl-2-(methylsulfonyl)butanamide] | 9.19 | > 64 µg/mL | 0.25 µg/mL (≈ 0.626 µM) | 0.5 µg/mL (≈ 1.25 µM) |
| COc1ccc(-c2cc(=O)n(CC[C@](C)(C(=O)NO)S(C)(=O)=O)cc2F)cc1F [Example 19, (2R)-4-[5-Fluoro-4-(3-fluoro-4-methoxyphenyl)-2-oxopyridin-1(2H)-yl]-N-hydroxy-2-methyl-2-(methylsulfonyl)butanamide] | 9.06 | > 64 µg/mL | 2 µg/mL (≈ 4.65 µM) | 1 µg/mL (≈ 2.32 µM) |
| C[C@@](CCn1cc(F)c(-c2ccc(OC(F)F)c(F)c2)cc1=O)(C(=O)NO)S(C)(=O)=O [Example 35, (2R)-4-{4-[4-(difluoromethoxy)-3-fluorophenyl]-5-fluoro-2-oxopyridin-1(2H)-yl}-N-hydroxy-2-methyl-2-(methylsulfonyl)butanamide] | 9.23 | > 64 µg/mL | 1 µg/mL (≈ 2.14 µM) | 0.5 µg/mL (≈ 1.07 µM) |
| C[C@@](CCn1cc(F)c(-c2ccccc2F)cc1=O)(C(=O)NO)S(C)(=O)=O [Example 4, (2R)-4-[5-Fluoro-4-(2-fluorophenyl)-2-oxopyridin-1(2H)-yl]-N-hydroxy-2-methyl-2-(methylsulfonyl)butanamide] | 9.14 | > 64 µg/mL | 2 µg/mL (≈ 4.99 µM) | 0.5 µg/mL (≈ 1.25 µM) |
| C[C@@](CCn1cc(F)c(-c2cccc(Oc3nccs3)c2)cc1=O)(C(=O)NO)S(C)(=O)=O [Example 49, (2R)-4-{5-Fluoro-2-oxo-4-[3-(1,3-thiazol-2-yloxy)phenyl]pyridin-1(2H)-yl}-N-hydroxy-2-methyl-2-(methylsulfonyl)butanamide] | 9.12 | > 64 µg/mL | 0.25 µg/mL (≈ 0.519 µM) | 2 µg/mL (≈ 4.15 µM) |
| COc1ccc(-c2cc(=O)n(CC[C@](C)(C(=O)NO)S(C)(=O)=O)cc2F)c(F)c1 [Example 27, (2R)-4-[5-Fluoro-4-(2-fluoro-4-methoxyphenyl)-2-oxopyridin-1(2H)-yl]-N-hydroxy-2-methyl-2-(methylsulfonyl)butanamide] | 10.30 | > 64 µg/mL | 0.25 µg/mL (≈ 0.581 µM) | 0.5 µg/mL (≈ 1.16 µM) |
